# Target: T1, PDE5 (bovine aorta) (Bos taurus, UniProt Q28156)
# T1 construct: from tissue; host or cells: bovine aorta
# Assay: Inhibitory effect on cGMP-PDE (one-step assay), enzyme from bovine aorta
# Type: biochemical
# Settings: vs. bovine aorta (footnote 1)
# Protocol: (§1) CGMP-PDE activity of compounds of the present invention was measured using a one-step assay adapted from Wells et al., Biochim. Biophys. Acta, 384, 430 (1975). The reaction medium contained 50 mM Tris-HCl, pH 7.5, 5 mM magnesium acetate, 250 μg/ml 5′-Nucleotidase, 1 mM EGTA, and 0.15 μM 8-[H^3]-cGMP. Unless otherwise indicated, the enzyme used was a human recombinant PDE5 (ICOS Corp., Bothell, Wash.).
# (§2) Compounds of the invention were dissolved in DMSO finally present at 2% in the assay.
row,IC50 [nM],Compound
1,340,"COc1ccc(C2c3[nH]c4ccccc4c3CC3C(=O)N(Cc4ccccc4)C(=O)CN32)cc1 (stereo not drawn) [Example 2, 2-Benzyl-6-(4-methoxyphenyl)-6,7,12,12a-tetrahydro-pyrazino[1′,2′:1,6]pyrido[3,4-b]indole-1,3-dione]"
2,900,"O=C1Nc2ccccc2C2c3[nH]c4ccccc4c3CCN12 (stereo not drawn) [Example 16, 7,8,13,13b-Tetrahydro-5H-5,6a,13-triazaindeno-[1,2-c]phenanthren-6-one]"
3,300,"COc1cc2c(cc1O)CN1CCc3c([nH]c4ccccc34)C1C2 (stereo not drawn) [Example 15, 2-Methoxy-5,7,8,13,13b,14-hexahydroindolo-[2′,3′:3,4]pyrido[1,2-b]isoquinolin-3-ol]"
4,70,Cn1c2ccccc2c2c(=O)n3c(cc21)-c1[nH]c2ccccc2c1CC3 [Example 18]
5,250,"O=C1CC(=O)N2CCc3c([nH]c4ccccc34)C2C1 (stereo not drawn) [Example 8, 6,7,12,12b-Tetrahydro-1H-indolo[2,3-a]-quinolizine-2,4-dione]"

# Target: human recombinant PDE5 (Homo sapiens, UniProt O76074)
# Assay: Inhibitory effect on cGMP-PDE (one-step assay, 8-[H3]-cGMP), human recombinant PDE5
# Type: biochemical
# Settings: not given
# Protocol: The compounds of the present invention were tested for an ability to inhibit PDE5. The ability of a compound to inhibit PDE5 activity is related to the IC50 yalue for the compound, i.e., the concentration of inhibitor required for 50% inhibition of enzyme activity. The IC50 value for compounds of the present invention were determined using recombinant human PDE5. […]
# Cell pellets (29 g) were thawed on ice with an equal volume of Lysis Buffer (25 mM Tris HCl, pH 8, 5 mM MgCl2, 0.25 mM DTT, 1 mM benzamidine, and 10 μM ZnSO4). Cells were lysed in a Microfluidizer® (Microfluidics Corp.) using nitrogen at 20,000 psi. The lysate was centrifuged and filtered through 0.45 μm disposable filters. The filtrate was applied to a 150 mL column of Q SEPHAROSE® Fast-Flow (Pharmacia). The column was washed with 1.5 volumes of Buffer A (20 mM Bis-Tris Propane, pH 6.8, 1 mM MgCl2, 0.25 mM DTT, 10 μM ZnSO4) and eluted with a step gradient of 125 mM NaCl in Buffer A followed by a linear gradient of 125–1000 mM NaCl in Buffer A. Active fractions from the linear gradient were applied to a 180 mL hydroxyapatite column in Buffer B (20 mM Bis-Tris Propane (pH 6.8), 1 mM MgCl2, 0.25 mM DTT, 10 μM ZnSO4, and 250 mM KCl). After loading, the column was washed with 2 volumes of Buffer B and eluted with a linear gradient of 0–125 mM potassium phosphate in Buffer B. Active fractions were pooled, precipitated with 60% ammonium sulfate, and resuspended in Buffer C (20 mM Bis-Tris Propane, pH 6.8, 125 mM NaCl, 0.5 mM DTT, and 10 μM ZnSO4). The pool was applied to a 140 mL column of SEPHA-CRYL® S-300 HR and eluted with Buffer C. Active fractions were diluted to 50% glycerol and stored at −20° C.
# as §1, §2
row,IC50 [nM],Compound
1,690,O=C(/C=C/c1ccccc1)N1CCc2c([nH]c3cc(-c4ccccc4)ccc23)C1c1ccc2c(c1)OCO2 (stereo not drawn) [Example 23]
2,50,"O=C1OCC(=O)N2[C@H](c3ccc4c(c3)OCO4)c3[nH]c4ccccc4c3C[C@H]12 [Example 7, (6R,11aS)-10-Benzo[1,3]dioxol-5-yl-5,5a,10,11-tetrahydro-7-oxa-9a,11-diazabenzo[b]fluorene-6.9-dione]"
3,70,"O=C1COC[C@@H]2Cc3c([nH]c4ccccc34)[C@H](c3ccc4c(c3)OCO4)N12 (racemic) [Example 3, (+−,cis)-10-Benzo[1,3]dioxol-5-yl-5a,6,10,11-tetrahydro-5H-7-oxa-9a,11-diazabenzo[b]-fluoren-9-one]"
4,550,"O=C1CCC(=O)N2[C@H](c3ccc4c(c3)OCO4)c3[nH]c4ccccc4c3C[C@@H]12 (racemic) [Example 6, (+−,trans)-6-Benzo[1,3]dioxol-5-yl-5,6,9,10,11a,12-hexahydroindolo[3,2-b]quinolizine-8,11-dione]"
5,300,"COc1ccc([C@H]2c3[nH]c4ccccc4c3C[C@H]3COCC(=O)N32)cc1 (racemic) [Example 4, (+−,cis)-10-(4-Methoxyphenyl)-5a,6,10,11-tetrahydro-5H-7-oxa-9a,11-diazabenzo[b]fluoren-9-one]"
6,180,CC1=CCC(/C=C/C(=O)N2CCc3c([nH]c4ccccc34)C2c2ccc3c(c2)OCO3)CC1 (stereo not drawn) [Example 20]
7,93,"CN1CN2[C@H](c3ccc4c(c3)OCO4)c3[nH]c4ccccc4c3C[C@@H]2C(=O)N1C [Example 1, (5aR,10R)-10-Benzo[1,3]dioxol-5-yl-7,8-dimethyl-5,5a,8,9,10,11-hexahydro-7H-7,8,9a,11-tetraazabenzo[b]floren-6-one]"
8,26,O=C(/C=C/c1ccccc1)N1CCc2c([nH]c3cc(Br)ccc23)C1c1ccc2c(c1)OCO2 (stereo not drawn) [Example 22]
9,80,"COC(=O)C1CC(=O)N2[C@H](c3ccc4c(c3)OCO4)c3[nH]c4ccccc4c3C[C@@H]2C1O (stereo partly drawn) [Example 5, (+−,cis)-6-Benzo[1,3]dioxol-5-yl-11-hydroxy-8-oxa-5,6,8,9,11a,12-hexahydroindolo[3,2-b]-guinolizine-10-carboxylic acid methyl ester]"
10,3,Cc1cccc2c3c([nH]c12)C(c1ccc2c(c1)OCO2)N(C(=O)/C=C/c1ccc(C(=O)O)cc1)CC3 (stereo not drawn) [Example 21]
